Results on two molecules are retold here after patent US20110009368A1, “SOLID FORMS OF TENOFOVIR DISOPROXIL” (ULTIMORPHIX TECHNOLOGIES B.V., priority 2007, published 2011).

The nature of series [1]: Intrinsic dissolution rate measurement (micro-dissolution, UV). The note with it: for Dissolution rate: 20 ml, 100 rpm. The class given is physicochemical. The method, then:
20 ml of high pure water was placed in 25 ml vial in the micro-dissolution thermal block by using a 20 ml volumetric pipette. A large cross stirrer was placed to the vial and the solution was stirred at a speed of 100 rpm. The 5 mm path length tip was placed from the top along with the probe connected with DAD (Diode Array Detector) analyzer. The 100% transmittance and dark spectra was collected by using high pure water. In the next step a tablet of 10 mg of Tenofovir disoproxil succinate (TDSU ULT-1) was pressed on tablet machine and placed along with the stirrer in a 25 ml vial in the micro-dissolution thermal block. The probe was placed along with the 5 mm path length tip and 20 ml of high pure water was added to the sample. The solution was stirred with a speed of 100 rpm and absorbance or the optical density was determined with respect to time by UV spectrometer. The intrinsic dissolution rate was determined by plotting concentration versus time and calculating the slope of the curve.
The same experiments were performed in a similar manner in buffered media of pH values of […]. pH buffers for dissolution pH 1.5: USP SGF without pepsin (0.05M sodium chloride adjusted to pH 1.5 with HCl) pH 3.0: 0.05 sodium di-hydrogen phosphate buffer adjusted to […] with NaOH pH 4.5: 0.05M sodium di-hydrogen phosphate buffer adjusted to pH 4.5 with NaOH pH 6.8: USP SIF without pancreatin (0.05M sodium di-hydrogen phosphate buffer adjusted to pH 6.8 with NaOH) pH 7.4: 0.05M sodium di-hydrogen phosphate adjusted to pH 7.4 with NaOH Results of intrinsic dissolution rate measurements

Assay in series [2]: as above
The format is physicochemical. The note with it: 20 ml, 100 rpm.

Series [3] can be described thus: Dynamic Vapour Sorption (DVS) moisture sorption. The format is physicochemical. The settings on record: for total uptake of water vapours (max water adsorption, hygroscopicity): relative humidity 0% to 95% in steps of 5%, 1 h per step. The method, then:
Moisture sorption isotherms were measured using a DVS-1 system of Surface Measurement Systems (London, UK). Differences in moisture uptake of a solid material indicate differences in the relative stabilities of the various solid forms for increasing relative humidity. The experiment was carried out at a constant temperature of 25° C.
A sample of about 15 mg of TDSU ULT-1 was spread in the DVS pan. The sample was dried at 0% RH for 7 h. Subsequently the relative humidity of the chamber was increased in steps of 5% units from 0% to 95% in order to monitor the sorption of water vapours. The samples remained in each of the steps for 1 h. Following, desorption was monitored by decreasing the relative humidity to 0% in steps of 5% units and remaining at each step for 1 h. The graph of sorption-desorption cycle is shown below. […] In a similar DVS experiment using the starting material as purchased, the total vapour intake was about 4%, which is undesirable in formulation and requires additional measures.

The conditions of series [4]: known crystalline form; compared with industry limits; cited from earlier work.
A short description of series [5]: Stress testing in climatic chamber, physical and chemical stability by XRPD and HPLC. The format is physicochemical. The note with it: 40° C. and 75% relative humidity. The method, then: A small quantity (of about 10 milligrams) of TDSU ULT-1 was placed in a Binder climatic chamber KBR115 series for stress testing under 40° C. and 75% relative humidity (RH). The material was checked for physical and chemical stability by XRPD and HPLC respectively in intervals of 2 and 4 weeks. In both cases the material was stable, i.e. no structural change or chemical degradation took place over the tested period.

Entries after “also recorded” stand apart in the source; their conditions may differ. Structures can show the parent of a compound that is named as a salt.

For the molecule `CC(C)OC(=O)OCOP(=O)(CO[C@H](C)Cn1cnc2c(N)ncnc21)OCOC(=O)OC(C)C` [TDF 1:1, 9-[(R)-2-[[bis[[(isopropoxycarbonyl)oxy]methoxy]phosphinyl]methoxy]propyl]adenine fumarate (1:1), reference compound], the Dissolution rate in series [1] (Buffer pH 1.5, 10 mg tablet) is recorded as 3.29 mgmin−1 cm−2; in series [1] (Buffer pH 4.5, 10 mg tablet) it was 0.99 mgmin−1 cm−2; in series [1] (water, 10 mg tablet), 1.12 mgmin−1 cm−2; in series [2] (Buffer pH 3.0, 10 mg tablet) it was 1.36 mgmin−1 cm−2; in series [2] (Buffer pH 6.8, 10 mg tablet), 0.98 mgmin−1 cm−2. For the same molecule, the “total uptake of water vapours (max water adsorption, hygroscopicity)” value in series [3] (DVS, 25° C.) was “about 4%”. Also, in series [4], the Hygroscopicity is reported as over 4%.
As for “Tenofovir Disoproxil succinate [TDSU ULT-1]”, the Dissolution rate in series [1] (Buffer pH 1.5, 10 mg tablet) is reported as 10.00 mgmin−1 cm−2; in series [1] (Buffer pH 4.5, 10 mg tablet) it was 3.55 mgmin−1 cm−2; in series [1] (water, 10 mg tablet) it was 1.42 mgmin−1 cm−2; in series [2] (Buffer pH 3.0, 10 mg tablet), 1.78 mgmin−1 cm−2; in series [2] (Buffer pH 6.8, 10 mg tablet), 1.88 mgmin−1 cm−2; in series [2] (Buffer pH 7.4, 10 mg tablet) it was 1.09 mgmin−1 cm−2. The “dissolving faster compared to TDF 1:1” value in series [1] (in water and in all media with pH values ranging from 1.5 to 7.4) is “up to 3 times”. For the same molecule, the “hygroscopicity (conclusion from DVS data)” value in series [3] (DVS, 25° C., 0% to 95% RH) is on record as “no hygroscopicity; also recorded: not hygroscopic”. The “total uptake of water vapours (max water adsorption, hygroscopicity)” value in series [3] (DVS, 25° C.) is listed as “about 0.3%”. Besides, the “structure by XRPD at the end of the DVS experiment” value in series [3] (after sorption-desorption cycle) is “no any changes in the structure”. Besides, the “physical and chemical stability (XRPD and HPLC)” value in series [5] (2 weeks) and in series [5] (4 weeks) was “stable” throughout.
